# Read-outs that look alike come from different tables or passages of the source.
# Experiments:
# [1] = test system: L3.6pl cells; test: DFMO/Spd rescue assay in L3.6pl cells; format: cell-based, human; conditions: for EC value in DFMO/Spd rescue assay: Table 9, ECx = y: x% effect at y μM
# Protocol: In another example in the DFMO spermidine (Spd) rescue assay an EC38=8 means that the PTI molecule at 8 μM was able to block 38% of the entry of spermidine into DFMO treated L3.6 pl cells after 72 h incubation time at 37° C. Another explanation, is that the PTI was able to disrupt […] of the intracellular trafficking of Spd that leads to cell rescue. […] Since both Ant44 and Spermidine are polyamine-based systems, cells likely use one mode of the polyamine transport (basal or obligate) in each assay.
# (§1) The higher EC value denotes the compound is giving a relative % growth of L3.6 pl cells consistent with inhibiting either Ant44 uptake or blocking the uptake of the rescuing dose of spermidine. Alternatively these compounds may disrupting the intracellular trafficking of Ant44 and spermidine so they cannot reach their intended intracellular target.
# [2] = test system: L3.6pl cells; test: cells; format: cell-based; conditions: for IC50: Homo sapiens, L3.6pl; for L3.6pl MTC: maximum tolerated concentration where cells are >90% viable
# [3] = test system: L3.6pl cells; test: Ant44 assay in L3.6pl cells; format: cell-based, human; conditions: for EC value in Ant44 (3 μM) assay: Table 9, ECx = y: x% effect at y μM; for EC50: Homo sapiens, L3.6pl
# Protocol: For example, in the ANT44 assay an EC48=9 means that the PTI molecule at 9 μM was able to block 48% of the Ant44 entry into L3.6 pl human Pancreatic ductal adenocarcinoma cells after 72 h incubation time at 37° C. Another explanation, is that the PTI was able to disrupt […] of the intracellular trafficking of Ant44 that leads to toxicity. Recall a polyamine transport inhibitor can work at any one (or more than one) of the different steps involved in the multi-step polyamine import and intracellular trafficking process. Blocking the entering spermidine from reaching its intended intracellular target is another way in which these compounds may function.
# as §1
# [4] = test system: DFMO treated Chinese hamster ovary (CHO) cells; test: DFMO/spermidine rescue assay in CHO cells (Assay 2); format: cell-based; conditions: for activity in DFMO assay: CHO cells; for EC50 / IC50: Cricetulus griseus, CHO; for EC50: Table 2
# Protocol: In the reconfirmation assay compounds were run in quadruplicate. […] A PTI compound is expected to block the entry or disrupt the intracellular trafficking of spermidine and inhibit the ability of spermidine to rescue the growth or viability of DFMO treated cells.
# DFMO/Spermidine assay Here cells were treated with an inhibitor of polyamine biosynthesis (DFMO) and rescued back to high viability by the presence of exogenous polyamine (spermidine). Putative PTI compounds were screened for their ability to block the entry or intracellular trafficking of exogenous spermidine (or otherwise disrupt the intracellular trafficking of spermidine) by measuring cell viability in the presence of DFMO+spermidine+PTI compound. […] This was followed by adding 10 μL of […] and 5 μM spermidine (FAC 5 mM DFMO and 1 μM spermidine) in assay medium with a Beckman BioRAPTR FRD dispenser or 10 μL of 5 mM DFMO added in assay medium (positive control). […] A PTI compound is expected to block the entry or disrupt the intracellular trafficking of spermidine and inhibit the ability of spermidine to rescue the growth or viability of DFMO treated cells Cytotoxicity
# [5] = test system: CHO cells; test: Cytotoxicity screen in CHO cells; conditions: for IC50 at 48 h: Chinese hamster, CHO K1 cells
# Protocol: CHO K1 cells were grown in growth medium to 70% confluency and washed in PBS and trypsinized. […] Cells were spun at 100×g for 1 minute and incubated at 37° C. in a humidified CO2 incubator for 24 hours. […] Cellular ATP content was then assayed by adding 3 uL of ATPLite with a Beckman BioRAPTR FRD dispenser and incubated for 10 minutes at room temperature. Plates were spun at 200×g for 1 minute and read on a Perkin Elmer Viewlux multimode plate reader using luminescence mode. This assay was used for testing dose-response of dry powders.
# CHO K1 cells were grown in growth medium to 70% confluency and washed in PBS and trypsinized. Cells were plated in assay medium at 10000 cells/mL for 200 cells per well using a Thermo Multidrop Combi in 20 uL into a white Greiner plate. Cells were spun at 100×g for 1 minute and incubated at 37° C. in a humidified CO2 incubator for 24 hours. […] This was followed by adding by 10 μL of assay medium to all wells with a Beckman BioRAPTR FRD dispenser. The plates were spun at 200×g for 1 minute and incubated at 37° C. in a humidified 5% CO2 incubator for 48 hours. Cellular ATP content was then assayed by adding 20 μL of ATPLite with a Beckman BioRAPTR FRD dispenser and incubated for 10 min at room temperature. Plates were spun at 200×g for 1 minute and read on a Perkin Elmer Envision for multimode plate reader using luminescence mode. Duplicates were run for each compound concentration, and the curves represent the average of the duplicates as percent viability.
# The final compound concentration was either 20 μM or 10 μg/mL (depending upon the compound source). A successful PTI in Assay 1 would block the uptake of the toxic Ant44 probe and rescue the cells back to >90% relative growth vs an untreated control. It was critical to also evaluate the toxicity of the PTI by itself as a toxic PTI would give a false negative in Assay1 (and a false positive in Assay 2). […] Assay 2 then evaluated the ability of the compound to inhibit the uptake of a rescuing dose of Spermidine (Spd, 1 μM) into DFMO-treated CHO cells.
# [6] = test system: CHO cells; test: Ant44 rescue assay in CHO cells (Assay 1); format: cell-based, Chinese hamster; conditions: for EC50 / IC50: Cricetulus griseus; for Active in Ant44 assay?: Table 2, in CHO
# Protocol: CHO K1 cells were grown in growth medium (RPMI+10% FBS+1×P/S+1% l-glutamine) to 70% confluency, washed in PBS and trypsinized. Cells were plated in assay medium (serum free RPMI+2% FBS+1×l-glutamine+1×P/S+[…] aminoguanidine) at 50000 cells/mL for 200 cells per well in 4 ul using a Thermo Multidrop Combi into a 1536-well white Aurora plate.
# Ant44 is a cytotoxic polyamine, i.e., N^1-(9-anthracenyl)-homospermidine. A non-toxic PTI compound would block entry or intracellular trafficking of the Ant44 toxin and rescue the cells back to high viability. Therefore, this screen tested for compounds which rescued cells from Ant44 toxicity. […] This was followed by adding 10 uL of 10 uM Ant44 (FAC 2 uM) in assay medium with a Beckman BioRAPTR FRD dispenser or 10 uL of cells added in assay medium (positive control).
# [7] = 72 h, Table 9, read-out: 72 h IC50
# [8] = Table 4B, read-out: DFMO/CHO IC50
# [9] = Table 7, read-out: SAR IC50 DFMO assay
# [10] = Homo sapiens, Table 2, DFMO rescue in L3.6pl
# [11] = CHO, Table 7, read-out: SAR IC50 Ant44 assay
# [12] = read-out: IC50 values (toxicity profile)
# [13] = relative growth after 72 h, read-out: L3.6pl IC50
smiles,measurement,setting,value
O=C(Nc1ccc(N2CCC(Oc3ccccc3)CC2)cc1C(=O)O)c1cc2ccccc2o1,EC value in DFMO/Spd rescue assay,[1],EC30 =10 μM
same,IC50,[2]; [7],44.4 ± 0.04 µM
same,MTD,[2]; Table 9,10 µM
same,EC value in Ant44 (3 μM) assay,[3],EC7 = 10 μM
O=C(Nc1ccc(N2CCC(Oc3ccccc3)CC2)cc1C(=O)O)c1cc2ccccc2[nH]1,EC value in DFMO/Spd rescue assay,[1],EC30 = 9 μM
same,IC50,[2]; [7],38.3 ± 0.04 µM
same,MTD,[2]; Table 9,10 µM
same,EC value in Ant44 (3 μM) assay,[3],not working as a PTI
Cl.O=C(Nc1ccc(N2CCNCC2)cc1C(=O)O)c1ccco1,EC value in DFMO/Spd rescue assay,[1],EC10 = 40 μM
same,IC50,[2]; [7],> 50 µM
same,MTD,[2]; Table 9,40 µM
same,EC value in Ant44 (3 μM) assay,[3],EC22 = 40 μM
O=C(Nc1ccc(N2CCC(Oc3ccccc3)CC2)cc1C(=O)O)c1cccnc1,EC value in DFMO/Spd rescue assay,[1],EC25 = 8 μM
same,IC50,[2]; [7],> 50 µM
same,MTD,[2]; Table 9,10 µM
same,EC value in Ant44 (3 μM) assay,[3],Not working
O=C(Nc1ccc(N2CCC(Oc3ccccc3)CC2)cc1C(=O)O)c1ccc(-c2ccc(Cl)cc2)o1,EC value in DFMO/Spd rescue assay,[1],EC6 = 1 μM
same,IC50,[2]; [7],> 1 µM
same,MTD,[2]; Table 9,1 µM
same,EC value in Ant44 (3 μM) assay,[3],Not working
O=C(Nc1ccc(F)cc1C(=O)O)c1ccco1,EC value in DFMO/Spd rescue assay,[1],EC67 = 100 μM
same,IC50,[2]; [7],> 100 µM
same,MTD,[2]; Table 9,>100 µM
same,EC value in Ant44 (3 μM) assay,[3],EC36 = 50 μM
"COc1ccccc1C(=O)Nc1ccc(N2CCC(c3ccccc3)CC2)cc1C(=O)O [SBI-0814418, 2-(2-methoxybenzamido)-5-(4-phenylpiperidin-1-yl)benzoic acid]",activity in DFMO assay,[4],modest activity
same,EC50,[4],21 µM
same,IC50,[4]; [8],21 µM
same,IC50,[4]; [9],21 µM
same,activity in DFMO assay run in L3.6 pl,[1],micromolar activity
same,EC50,[1]; [10],5 µM
same,L3.6pl MTD,[2]; Table 2,5 µM
same,L3.6pl MTD,[2]; Table 4B,(5-10) μM
same,L3.6pl MTD cell: percentage at 10 μM,[2]; at 10 μM,80%
same,general toxicity,[5]; CHO cells,without general toxicity
same,IC50 at 48 h,[5],> 40 µM
same,CHO MTD,[5]; hamster,>32 µM
same,Active in Ant44 assay?,"[3]; Table 2, in L3.6pl",no
same,activity in Ant44 assay,[6]; CHO cells,modest activity
same,EC50,"[6]; CHO, Table 2, Active in Ant44 assay?, read-out: Ant44 assay EC50 in CHO",19 µM
same,IC50,[6]; [11],18 µM
same,IC50,"[6]; Table 4B, CHO cells, read-out: Ant44 IC50",19 µM
same,Active in Ant44 assay?,[6],Yes
"O=C(Nc1ccc(N2CCN(c3ccccn3)CC2)cc1C(=O)O)c1ccco1 [SBI-0814419, 2-(furan-2-carboxamido)-5-(4-(pyridin-2-yl)piperazin-1-yl)benzoic acid]",IC50,[4]; [9],> 40 µM
same,Active in DFMO assay?,"[4]; Table 3, in CHO",No in CHO and in L3.6pl
same,worked in Assay 2 (DFMO),[1],performed in both assays
same,Active in DFMO assay?,"[1]; Table 3, in L3.6pl",No in CHO and in L3.6pl
same,IC50,[2]; [12],> 38 µM
same,IC50,[2]; [13],> 50 µM
same,MTD L3.6pl,[2]; Table 3,>20 µM
same,L3.6pl MTD,[2]; Table 5B,(>10) uM
same,L3.6pl MTC,[2],12 µM
same,IC50 at 48 h,[5],> 40 µM
same,MTD CHO,[5]; hamster,>32 µM
same,worked in Assay 1 (Ant44),[3],performed in both assays
same,EC50,"[3]; Table 3, read-out: Ant44 rescue EC50 L3.6pl",10 µM
same,EC50,"[3]; Table 5B, Ant44 blockade, read-out: L3.6pl EC50",10 µM
same,EC50,"[6]; CHO, Table 3, read-out: Ant44 rescue EC50 CHO",> 32 µM
same,IC50,[6]; [11],> 40 µM
same,Ant44 IC50,"[6]; Table 5B, CHO cells",trace
"COc1ccccc1C(=O)Nc1ccc(N2CCC(Oc3ccccc3)CC2)cc1C(=O)O [SBI-0814420, 2-(2-methoxybenzamido)-5-(4-phenoxypiperidin-1-yl)benzoic acid]",IC50,[4]; [9],19 µM
same,worked in Assay 2 (DFMO),[1],performed in both assays
same,IC50,[2]; [12],> 38 µM
same,IC50,[2]; [13],38.6 ± 0.06 µM
same,L3.6pl MTC,[2],10 µM
same,IC50 at 48 h,[5],> 40 µM
same,worked in Assay 1 (Ant44),[3],performed in both assays
same,IC50,[6]; [11],32 µM
"COc1ccccc1C(=O)Nc1ccc(N2CCN(Cc3ccccn3)CC2)cc1C(=O)O [SBI-0814421, 2-(2-methoxybenzamido)-5-(4-(pyridin-2-ylmethyl)piperazin-1-yl)benzoic acid]",activity in DFMO assay,[4],some level of activity
same,EC50,[4],20 µM
same,IC50,[4]; [8],9.5 µM
same,IC50,[4]; [9],10 µM
same,EC50,[1]; [10],> 10 µM
same,EC50,"[1]; Table 4B, DFMO-spermidine rescue",> 10 µM
same,L3.6pl MTD,[2]; Table 2,10 µM
same,L3.6pl MTD,[2]; Table 4B,(10) μM
same,IC50 at 48 h,[5],> 40 µM
same,CHO MTD,[5]; hamster,>20 µM
same,IC50,[6]; [11],> 40 µM
same,Active in Ant44 assay?,[6],No in CHO
COc1ccc(C(=O)Nc2ccc(N3CCN(c4cc(Cl)ccc4C)CC3)cc2C(=O)O)cc1 [drawing 134],EC value in DFMO/Spd rescue assay,[1],EC49 = 8 μM
same,IC50,[2]; [7],16.8 ± 0.1 µM
same,MTD,[2]; Table 9,8 µM
same,EC value in Ant44 (3 μM) assay,[3],EC21 = 8 μM
COc1ccc(C(=O)Nc2ccc(N3CCN(c4cc(Cl)ccc4C)CC3)cc2C(=O)O)c(OC)c1 [drawing 135],EC value in DFMO/Spd rescue assay,[1],EC15 = 20 μM
same,IC50,[2]; [7],> 50 µM
same,MTD,[2]; Table 9,>20 µM
same,EC value in Ant44 (3 μM) assay,[3],inactive
COc1ccccc1C(=O)Nc1ccc(N2CCN(c3cc(Cl)ccc3C)CC2)cc1C(=O)O [drawing 136],EC value in DFMO/Spd rescue assay,[1],EC29 = 5 μM
same,IC50,[2]; [7],29.1 ± 0.03 µM
same,MTD,[2]; Table 9,>5 µM
same,EC value in Ant44 (3 μM) assay,[3],not working as a PTI

# Reference: patent US11905268B2, “Anthranilic acid derivatives and their use in the treatment of human cancers” (UNIVERSITY OF CENTRAL FLORIDA RESEARCH FOUNDATION, INC., priority 2018, dated 2024)
